From patent US4398937A, “Selective algaecides for control of cyanochloronta” (The University of Southern Mississippi, priority 1981, dated 1983)

What was measured:
catfish fingerlings = experiment: Toxicity to catfish fingerlings in aquaria; format: in vivo
Protocol: For any algaecide to be useful in aquaculture, it must be without harmful effects on fish populations in ponds to be treated. Experiments to determine the effects of potassium ricinoleate on fish were performed in two 250 gallon aquaria using various concentrations of the algaecide. Batches of 25 live 5 in. catfish fingerlings were treated with 5, 10, 15, 20, 30, 35 and 100 ppm algaecide and observed for 48 hours.

[1] = Field Experiment I, total organism dry weight; format: in vivo; conditions: 10 ppm
Protocol: (§1) 1, 1980, to Mar. 19, 1981.
(§2) On July 30, 1980, most ponds had numbers of blue-green algae exceeding 2×10^6 cells/liter. These algae were predominantly Oscillatoria,Microcystis and Anacystis with smaller numbers of Nostoc, Anabaena and Lyngbya. The experimental pond had 1.2×10^6 cells/liter composed mainly of Microcystis sp. Large numbers of copepods and rotifers were present. On July 30, the pond was treated with 10 ppm potassium ricinoleate by distributing a 30% aqueous solution evenly through the water column by pump from a small boat. […] This is further substantiated by the dry weights and chlorophyll a levels.

[2] = test system: sewage containing mostly green algae; experiment: Sewage treatment test 1, mostly green algae; conditions: for cells/liter: after six days of aeration
Protocol: Two experiments were performed on sewage to further illustrate the utility of these algaecides. In the first experiment, sewage containing mostly green algae was treated with relatively high concentrations of potassium ricinoleate.

Cylindrospermum = experiment: Selective effect on algae in test tubes (Table V), Cylindrospermum; format: cell-based; conditions: for cells/ml: 13 days after innoculation, average of 3 samples
Protocol: (§3) Another laboratory experiment was run to further substantiate the selective effect of one of the algaecides, potassium ricinoleate. Two species of blue-green algae, Lyngbya and Cylindrospermum, and three species of green algae, Chlorella, Haematococcus and Stigeoclonium and Tribonema, a yellow-green alga of the division Chrysophycophyta, were treated as follows: Twenty ml test tubes of sterile BBM culture solution were innoculated with each alga. All species of algae were evaluated with three groups, control, 2.5 ppm algaecide and 7.5 ppm algaecide. Each group was run with triplicate samples.
(§4) Controls were counted 6 days after innoculation, algaecide was added to the treatment groups seven days after innoculation and all test tubes were counted thirteen days after innoculation. The results are shown in Table V. After seven days, there was a 31% reduction in the Lyngbya cultures at 2.5 ppm algaecide and a 40% reduction at 7.5 ppm. After seven days, there was a 60% reduction in Cylindrospermum cultures at 2.5 ppm algaecide and a 72% reduction at 7.5 ppm. […] After thirteen days, there was a 55% reduction in numbers at both 2.5 ppm and 7.5 ppm. After twenty days there was a 27% reduction at both concentrations. […] They are, like blue-green algae, often associated with taste and odor problems.

zooplankton [3] = experiment: Field Experiment II, catfish pond, zooplankton; format: in vivo; conditions: 2 ppm
Chlorella = experiment: Selective effect on algae in test tubes (Table V), Chlorella; format: cell-based; conditions: for cells/ml: 13 days after innoculation, average of 3 samples
Protocol: as §3, §4

Tribonema = experiment: Selective effect on algae in test tubes (Table V), Tribonema; format: cell-based; conditions: for cells/ml: average of 3 samples
Protocol: as §3, §4

Zooplankton [4] = experiment: Field Experiment I, catfish pond, zooplankton; format: in vivo, copepods and rotifers; conditions: 10 ppm
Protocol: as §1, §2

Lyngbya = experiment: Selective effect on algae in test tubes (Table V), Lyngbya; format: cell-based; conditions: for cells/ml: 13 days after innoculation, average of 3 samples
Protocol: as §3, §4

blue-green algae = experiment: Field Experiment III, pond, blue-green algae; format: in vivo, blue-green algae (Oscillatoria and Microcystis); conditions: 2 ppm on 6/9/81
Protocol: In Field Experiment III, a small two acre pond was monitored for a complete year for plankton organisms as before. Oscillatoria and Microcystis were usually the prevalent blue-green algae. On 6/9/81 the pond was experiencing a bloom consisting completely of Oscillatoria. Channel catfish from the ponds had the characteristic earthy, musty taste and odor of 4 and 4 respectively on the 0 to 5 scale. The pond was treated on this date with 2 ppm potassium ricinoleate, one of the selective algaecides, as before.

[5] = 7/31 post-treatment (treated July 30, 1980)
[6] = 11/21 post-treatment (normal winter reduction)
[7] = 168 h, read-out: reduction in cultures

CCCCCC[C@@H](O)C/C=C\CCCCCCCC(=O)[O-].[K+]
taste or odor of cooked fish (juvenile channel catfish; 10 ppm, samples February through June, 1981): no taste or odor problems | health of juvenile catfish (juvenile channel catfish; in vivo): fed and otherwise appeared healthy | fish survival (catfish fingerlings; 35 ppm and lower, observed for 48 hours): All fish survived | fish mortality (catfish fingerlings; 100 ppm, at 12 hours): All fish had died | Dry Wgts [1, 5]: 2.19 Gm/Liter | Dry Wgts ([1]; 8/1 post-treatment): 4.45 Gm/Liter | Dry Wgts ([1]; 8/6 post-treatment): 17.90 Gm/Liter | Dry Wgts ([1]; 8/19 post-treatment): 5.34 Gm/Liter | Dry Wgts ([1]; 9/6 post-treatment): 20.69 Gm/Liter | Dry Wgts ([1]; 9/23 post-treatment): 9.06 Gm/Liter | Dry Wgts [1, 6]: 1.03 Gm/Liter | Dry Wgts ([1]; 12/14 post-treatment): 4.84 Gm/Liter | cells/liter ([2]; 18.4 ppm): 1.91 × 10^5 cells/liter | cells/liter ([2]; 46.0 ppm): 1.33 × 10^5 cells/liter | cells/liter ([2]; 92.0 ppm): 2.30 × 10^5 cells/liter | cells/liter ([2]; 184.1 ppm): 2.72 × 10^5 cells/liter | effect on green algae ([2]; six days after treatment): somewhat stimulated | cells/ml (Cylindrospermum; 2.5 ppm): 2500 cells/ml | cells/ml (Cylindrospermum; 7.5 ppm): 1770 cells/ml | inhibition of growth at 2.5 ppm (Cylindrospermum; [7]): 60% | inhibition of growth at 7.5 ppm (Cylindrospermum; [7]): 72% | Zoo #'s/liter (zooplankton [3]; 5/26/81 B post-treat, 4 p.m., Deep): 755 #'s/liter | Zoo #'s/liter (zooplankton [3]; 5/26/81 C post-treat, 4 p.m., Shallow): 2270 #'s/liter | Zoo #'s/liter (zooplankton [3]; 5/27/81 D, 9:40 p.m., Deep): 0 #'s/liter | Zoo #'s/liter (zooplankton [3]; 5/27/81 E, 9:40 p.m., Shallow): 1510 #'s/liter | Zoo #'s/liter (zooplankton [3]; 5/28/81 F, 7 a.m.): 756 #'s/liter | Zoo #'s/liter (zooplankton [3]; 5/28/81 G, 11 a.m.): 2270 #'s/liter | zooplankton after treatment (zooplankton [3]; through June, 1981): remained unchanged | effect (Chlorella; 2.5 and 7.5 ppm, after seven days): slightly inhibited | cells/ml (Chlorella; 2.5 ppm): 44000 cells/ml | cells/ml (Chlorella; 7.5 ppm): 49000 cells/ml | cells/ml (Tribonema; 2.5 ppm, 13 days after innoculation): 5885 cells/ml | cells/ml (Tribonema; 2.5 ppm, 20 days after innoculation): 10510 cells/ml | cells/ml (Tribonema; 7.5 ppm, 13 days after innoculation): 5335 cells/ml | cells/ml (Tribonema; 7.5 ppm, 20 days after innoculation): 10295 cells/ml | reduction in numbers (Tribonema; both 2.5 ppm and 7.5 ppm, after thirteen days): 55% | reduction in numbers (Tribonema; both concentrations (2.5 and 7.5 ppm), after twenty days): 27% | Zooplankton #/Liter (Zooplankton [4]; [5]): 2531 #/Liter | Zooplankton #/Liter (Zooplankton [4]; 8/1 post-treatment): 2500 #/Liter | Zooplankton #/Liter (Zooplankton [4]; 8/6 post-treatment): 4050 #/Liter | Zooplankton #/Liter (Zooplankton [4]; 8/19 post-treatment): 2025 #/Liter | Zooplankton #/Liter (Zooplankton [4]; 9/6 post-treatment): 4050 #/Liter | Zooplankton #/Liter (Zooplankton [4]; 9/23 post-treatment): 506 #/Liter | Zooplankton #/Liter (Zooplankton [4]; [6]): 1012 #/Liter | Zooplankton #/Liter (Zooplankton [4]; 12/14 post-treatment): 1518 #/Liter | numbers of zooplankton (Zooplankton [4]; seven days after treatment): essentially unchanged or increased in numbers | cells/ml (Lyngbya; 2.5 ppm): 2340 cells/ml | cells/ml (Lyngbya; 7.5 ppm): 2010 cells/ml | inhibition of growth at 2.5 ppm (Lyngbya; [7]): 31% | inhibition of growth at 7.5 ppm (Lyngbya; [7]): 40% | Cells/liter bluegreen algae (blue-green algae; 6/10/81, prevalent Osc, Mic): 2.8 × 10^6 Cells/liter | Cells/liter bluegreen algae (blue-green algae; 6/12/81, prevalent Osc): 1.3 × 10^6 Cells/liter | Cells/liter bluegreen algae (blue-green algae; 6/22/81, prevalent Ped): 1.2 × 10^4 Cells/liter | predominant alga after treatment (blue-green algae; June 22): Pediastrum with isolated fragments of Oscillatoria filaments
